# Measured values as given in PubChem BioAssay (NCI).
#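 Growth conditions: 96-well plates. Treatment: test compound, 48 hours, 5 concentrations. Analysis: linear interpolation between bracketing concentrations; unreached endpoints set to highest concentration. Abbreviation: GI50, concentration required for 50% inhibition of growth. TGI is the concentration that stops growth completely.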
# How the values were obtained:
# Test in all cases: NCI-60 cell line screen, 48 h
# KM12 colon = test system: KM12 colon
# EKVX NSCLC = test system: EKVX NSCLC
# HCT-116 colon = test system: HCT-116 colon
# RXF 393 renal = test system: RXF 393 renal
# U251 CNS = test system: U251 CNS
# MDA-N = test system: MDA-N
# PC-3 prostate = test system: PC-3 prostate
# UO-31 renal = test system: UO-31 renal
# SK-OV-3 ovarian = test system: SK-OV-3 ovarian
# SNB-19 CNS = test system: SNB-19 CNS
# HT29 colon = test system: HT29 colon
# SW-620 colon = test system: SW-620 colon
# SF-295 CNS = test system: SF-295 CNS
# A498 renal = test system: A498 renal
# T-47D breast = test system: T-47D breast
# SF-539 CNS = test system: SF-539 CNS
# CAKI-1 renal = test system: CAKI-1 renal
# OVCAR-3 ovarian = test system: OVCAR-3 ovarian
# HS 578T breast = test system: HS 578T breast
# MDA-MB-435 = test system: MDA-MB-435
# A549 NSCLC = test system: A549 NSCLC
# K-562 leukemia = test system: K-562 leukemia
# SF-268 CNS = test system: SF-268 CNS
# MDA-MB-231 breast = test system: MDA-MB-231 breast
# CCRF-CEM leukemia = test system: CCRF-CEM leukemia
# MALME-3M melanoma = test system: MALME-3M melanoma
# NCI-H460 lung = test system: NCI-H460 lung
# NCI-H522 lung = test system: NCI-H522 lung
# SN12C renal = test system: SN12C renal
# HCT-15 colon = test system: HCT-15 colon
# OVCAR-8 ovarian = test system: OVCAR-8 ovarian
# SK-MEL-5 melanoma = test system: SK-MEL-5 melanoma
# MCF7 breast = test system: MCF7 breast
# BT-549 breast = test system: BT-549 breast
# TK-10 renal = test system: TK-10 renal
# HOP-62 NSCLC = test system: HOP-62 NSCLC
# DU-145 prostate = test system: DU-145 prostate
# SNB-75 CNS = test system: SNB-75 CNS
# RPMI-8226 leukemia = test system: RPMI-8226 leukemia
# UACC-62 melanoma = test system: UACC-62 melanoma
# NCI/ADR-RES ovarian = test system: NCI/ADR-RES ovarian
# 786-0 renal = test system: 786-0 renal
# OVCAR-4 ovarian = test system: OVCAR-4 ovarian
# ACHN renal = test system: ACHN renal
# NCI-H226 lung = test system: NCI-H226 lung
# SK-MEL-2 melanoma = test system: SK-MEL-2 melanoma
# MOLT-4 leukemia = test system: MOLT-4 leukemia
# SK-MEL-28 melanoma = test system: SK-MEL-28 melanoma
# HOP-92 NSCLC = test system: HOP-92 NSCLC
# SR leukemia = test system: SR leukemia
# M14 melanoma = test system: M14 melanoma
# NCI-H23 lung = test system: NCI-H23 lung
# LOX IMVI melanoma = test system: LOX IMVI melanoma
# IGROV1 ovarian = test system: IGROV1 ovarian
# UACC-257 melanoma = test system: UACC-257 melanoma
# OVCAR-5 ovarian = test system: OVCAR-5 ovarian
# COLO 205 colon = test system: COLO 205 colon
# HCC-2998 colon = test system: HCC-2998 colon
# HL-60(TB) leukemia = test system: HL-60(TB) leukemia
structure (smiles),measurement,setting,value
O=C=Nc1ccc(Cc2ccc(N=C=O)cc2)cc1 (tested in a mixture with another compound),GI50,KM12 colon,> 25 µg/mL
same,TGI,KM12 colon,> 25 µg/mL
same,GI50,EKVX NSCLC,> 25 µg/mL
same,TGI,EKVX NSCLC,> 25 µg/mL
same,GI50,HCT-116 colon,> 25 µg/mL
same,TGI,HCT-116 colon,> 25 µg/mL
same,GI50,RXF 393 renal,> 25 µg/mL
same,TGI,RXF 393 renal,> 25 µg/mL
same,GI50,U251 CNS,> 25 µg/mL
same,TGI,U251 CNS,> 25 µg/mL
same,GI50,MDA-N,> 25 µg/mL
same,TGI,MDA-N,> 25 µg/mL
same,GI50,PC-3 prostate,> 25 µg/mL
same,TGI,PC-3 prostate,> 25 µg/mL
same,GI50,UO-31 renal,> 25 µg/mL
same,TGI,UO-31 renal,> 25 µg/mL
same,GI50,SK-OV-3 ovarian,> 25 µg/mL
same,TGI,SK-OV-3 ovarian,> 25 µg/mL
same,GI50,SNB-19 CNS,> 25 µg/mL
same,TGI,SNB-19 CNS,> 25 µg/mL
same,GI50,HT29 colon,> 25 µg/mL
same,TGI,HT29 colon,> 25 µg/mL
same,GI50,SW-620 colon,> 25 µg/mL
same,TGI,SW-620 colon,> 25 µg/mL
same,GI50,SF-295 CNS,> 25 µg/mL
same,TGI,SF-295 CNS,> 25 µg/mL
same,GI50,A498 renal,> 25 µg/mL
same,TGI,A498 renal,> 25 µg/mL
same,GI50,T-47D breast,> 25 µg/mL
same,TGI,T-47D breast,> 25 µg/mL
same,GI50,SF-539 CNS,> 25 µg/mL
same,TGI,SF-539 CNS,> 25 µg/mL
same,GI50,CAKI-1 renal,> 25 µg/mL
same,TGI,CAKI-1 renal,> 25 µg/mL
same,GI50,OVCAR-3 ovarian,> 25 µg/mL
same,TGI,OVCAR-3 ovarian,> 25 µg/mL
same,GI50,HS 578T breast,> 25 µg/mL
same,TGI,HS 578T breast,> 25 µg/mL
same,GI50,MDA-MB-435,> 25 µg/mL
same,TGI,MDA-MB-435,> 25 µg/mL
same,GI50,A549 NSCLC,> 25 µg/mL
same,TGI,A549 NSCLC,> 25 µg/mL
same,GI50,K-562 leukemia,12.3 µg/mL
same,TGI,K-562 leukemia,> 25 µg/mL
same,GI50,SF-268 CNS,> 25 µg/mL
same,TGI,SF-268 CNS,> 25 µg/mL
same,GI50,MDA-MB-231 breast,> 25 µg/mL
same,TGI,MDA-MB-231 breast,> 25 µg/mL
same,GI50,CCRF-CEM leukemia,> 25 µg/mL
same,TGI,CCRF-CEM leukemia,> 25 µg/mL
same,GI50,MALME-3M melanoma,> 25 µg/mL
same,TGI,MALME-3M melanoma,> 25 µg/mL
same,GI50,NCI-H460 lung,> 25 µg/mL
same,TGI,NCI-H460 lung,> 25 µg/mL
same,GI50,NCI-H522 lung,> 25 µg/mL
same,TGI,NCI-H522 lung,> 25 µg/mL
same,GI50,SN12C renal,> 25 µg/mL
same,TGI,SN12C renal,> 25 µg/mL
same,GI50,HCT-15 colon,> 25 µg/mL
same,TGI,HCT-15 colon,> 25 µg/mL
same,GI50,OVCAR-8 ovarian,> 25 µg/mL
same,TGI,OVCAR-8 ovarian,> 25 µg/mL
same,GI50,SK-MEL-5 melanoma,> 25 µg/mL
same,TGI,SK-MEL-5 melanoma,> 25 µg/mL
same,GI50,MCF7 breast,> 25 µg/mL
same,TGI,MCF7 breast,> 25 µg/mL
same,GI50,BT-549 breast,> 25 µg/mL
same,TGI,BT-549 breast,> 25 µg/mL
same,GI50,TK-10 renal,> 25 µg/mL
same,TGI,TK-10 renal,> 25 µg/mL
same,GI50,HOP-62 NSCLC,> 25 µg/mL
same,TGI,HOP-62 NSCLC,> 25 µg/mL
same,GI50,DU-145 prostate,> 25 µg/mL
same,TGI,DU-145 prostate,> 25 µg/mL
same,GI50,SNB-75 CNS,> 25 µg/mL
same,TGI,SNB-75 CNS,> 25 µg/mL
same,GI50,RPMI-8226 leukemia,> 25 µg/mL
same,TGI,RPMI-8226 leukemia,> 25 µg/mL
same,GI50,UACC-62 melanoma,> 25 µg/mL
same,TGI,UACC-62 melanoma,> 25 µg/mL
same,GI50,NCI/ADR-RES ovarian,> 25 µg/mL
same,TGI,NCI/ADR-RES ovarian,> 25 µg/mL
same,GI50,786-0 renal,> 25 µg/mL
same,TGI,786-0 renal,> 25 µg/mL
same,GI50,OVCAR-4 ovarian,> 25 µg/mL
same,TGI,OVCAR-4 ovarian,> 25 µg/mL
same,GI50,ACHN renal,> 25 µg/mL
same,TGI,ACHN renal,> 25 µg/mL
same,GI50,NCI-H226 lung,> 25 µg/mL
same,TGI,NCI-H226 lung,> 25 µg/mL
same,GI50,SK-MEL-2 melanoma,> 25 µg/mL
same,TGI,SK-MEL-2 melanoma,> 25 µg/mL
same,GI50,MOLT-4 leukemia,1.33 µg/mL
same,TGI,MOLT-4 leukemia,> 25 µg/mL
same,GI50,SK-MEL-28 melanoma,> 25 µg/mL
same,TGI,SK-MEL-28 melanoma,> 25 µg/mL
same,GI50,HOP-92 NSCLC,> 25 µg/mL
same,TGI,HOP-92 NSCLC,> 25 µg/mL
same,GI50,SR leukemia,> 25 µg/mL
same,TGI,SR leukemia,> 25 µg/mL
same,GI50,M14 melanoma,> 25 µg/mL
same,TGI,M14 melanoma,> 25 µg/mL
same,GI50,NCI-H23 lung,> 25 µg/mL
same,TGI,NCI-H23 lung,> 25 µg/mL
same,GI50,LOX IMVI melanoma,> 25 µg/mL
same,TGI,LOX IMVI melanoma,> 25 µg/mL
same,GI50,IGROV1 ovarian,> 25 µg/mL
same,TGI,IGROV1 ovarian,> 25 µg/mL
same,GI50,UACC-257 melanoma,> 25 µg/mL
same,TGI,UACC-257 melanoma,> 25 µg/mL
same,GI50,OVCAR-5 ovarian,> 25 µg/mL
same,TGI,OVCAR-5 ovarian,> 25 µg/mL
same,GI50,COLO 205 colon,> 25 µg/mL
same,TGI,COLO 205 colon,> 25 µg/mL
CCCCNc1nc(SC)nc2nc[nH]c12,TGI,KM12 colon,> 100 µM
same,TGI,EKVX NSCLC,> 100 µM
same,TGI,HCT-116 colon,> 100 µM
same,TGI,RXF 393 renal,> 100 µM
same,TGI,HCC-2998 colon,> 100 µM
same,TGI,U251 CNS,> 100 µM
same,TGI,MDA-N,> 100 µM
same,TGI,PC-3 prostate,> 100 µM
same,TGI,UO-31 renal,> 100 µM
same,TGI,SK-OV-3 ovarian,41.9 µM
same,TGI,SNB-19 CNS,> 100 µM
same,TGI,HT29 colon,> 100 µM
same,TGI,SW-620 colon,> 100 µM
same,TGI,SF-295 CNS,> 100 µM
same,TGI,A498 renal,> 89.2 µM
same,TGI,T-47D breast,> 100 µM
same,TGI,SF-539 CNS,> 100 µM
same,TGI,CAKI-1 renal,> 100 µM
same,TGI,OVCAR-3 ovarian,> 100 µM
same,TGI,HS 578T breast,21.9 µM
same,TGI,MDA-MB-435,> 100 µM
same,TGI,A549 NSCLC,> 100 µM
same,TGI,K-562 leukemia,> 100 µM
same,TGI,SF-268 CNS,> 100 µM
same,TGI,MDA-MB-231 breast,> 100 µM
same,TGI,CCRF-CEM leukemia,> 100 µM
same,TGI,MALME-3M melanoma,> 100 µM
same,TGI,NCI-H460 lung,> 100 µM
same,TGI,NCI-H522 lung,> 100 µM
same,TGI,SN12C renal,> 100 µM
same,TGI,HCT-15 colon,> 100 µM
same,TGI,OVCAR-8 ovarian,> 100 µM
same,TGI,SK-MEL-5 melanoma,> 100 µM
same,TGI,MCF7 breast,> 100 µM
same,TGI,BT-549 breast,> 100 µM
same,TGI,TK-10 renal,> 100 µM
same,TGI,HOP-62 NSCLC,> 100 µM
same,TGI,DU-145 prostate,> 100 µM
same,TGI,SNB-75 CNS,> 100 µM
same,TGI,RPMI-8226 leukemia,> 100 µM
same,TGI,UACC-62 melanoma,> 100 µM
same,TGI,NCI/ADR-RES ovarian,> 100 µM
same,TGI,786-0 renal,> 100 µM
same,TGI,OVCAR-4 ovarian,> 100 µM
same,TGI,ACHN renal,> 100 µM
same,TGI,NCI-H226 lung,> 100 µM
same,TGI,SK-MEL-2 melanoma,> 100 µM
same,TGI,MOLT-4 leukemia,> 100 µM
same,TGI,SK-MEL-28 melanoma,> 100 µM
same,TGI,HL-60(TB) leukemia,> 100 µM
same,TGI,HOP-92 NSCLC,> 100 µM
same,TGI,SR leukemia,> 100 µM
same,TGI,M14 melanoma,> 100 µM
same,TGI,NCI-H23 lung,> 100 µM
same,TGI,LOX IMVI melanoma,> 100 µM
same,TGI,IGROV1 ovarian,> 100 µM
same,TGI,UACC-257 melanoma,> 100 µM
same,TGI,OVCAR-5 ovarian,> 100 µM
same,TGI,COLO 205 colon,> 100 µM
